Laboratory results as given in the Kinase Knowledgebase extract (Sharma et al. 2016).

Tests used:
[1] = target: PIK3CA (human) (UniProt P42336); experiment: Enzyme Assay
[2] = target: PIK3CB (Human) (UniProt P42338); experiment: Enzyme Assay
[3] = target: PIK3CD (Human) (UniProt O00329); experiment: Enzyme Assay
[4] = target: PIK3CG (human) (UniProt P48736); experiment: Enzyme Assay
[5] = target: PIK3CD (Human) (UniProt O00329); experiment: Cell-Based Assay; details: raji
[6] = target: PIK3CA (human) (UniProt P42336); experiment: Cell-Based Assay; details: skov-3
[7] = target: PIK3CB (Human) (UniProt P42338); experiment: Cell-Based Assay; details: 786-o

Chain of PIK3CG (human) (P48736 whole entry, looked up): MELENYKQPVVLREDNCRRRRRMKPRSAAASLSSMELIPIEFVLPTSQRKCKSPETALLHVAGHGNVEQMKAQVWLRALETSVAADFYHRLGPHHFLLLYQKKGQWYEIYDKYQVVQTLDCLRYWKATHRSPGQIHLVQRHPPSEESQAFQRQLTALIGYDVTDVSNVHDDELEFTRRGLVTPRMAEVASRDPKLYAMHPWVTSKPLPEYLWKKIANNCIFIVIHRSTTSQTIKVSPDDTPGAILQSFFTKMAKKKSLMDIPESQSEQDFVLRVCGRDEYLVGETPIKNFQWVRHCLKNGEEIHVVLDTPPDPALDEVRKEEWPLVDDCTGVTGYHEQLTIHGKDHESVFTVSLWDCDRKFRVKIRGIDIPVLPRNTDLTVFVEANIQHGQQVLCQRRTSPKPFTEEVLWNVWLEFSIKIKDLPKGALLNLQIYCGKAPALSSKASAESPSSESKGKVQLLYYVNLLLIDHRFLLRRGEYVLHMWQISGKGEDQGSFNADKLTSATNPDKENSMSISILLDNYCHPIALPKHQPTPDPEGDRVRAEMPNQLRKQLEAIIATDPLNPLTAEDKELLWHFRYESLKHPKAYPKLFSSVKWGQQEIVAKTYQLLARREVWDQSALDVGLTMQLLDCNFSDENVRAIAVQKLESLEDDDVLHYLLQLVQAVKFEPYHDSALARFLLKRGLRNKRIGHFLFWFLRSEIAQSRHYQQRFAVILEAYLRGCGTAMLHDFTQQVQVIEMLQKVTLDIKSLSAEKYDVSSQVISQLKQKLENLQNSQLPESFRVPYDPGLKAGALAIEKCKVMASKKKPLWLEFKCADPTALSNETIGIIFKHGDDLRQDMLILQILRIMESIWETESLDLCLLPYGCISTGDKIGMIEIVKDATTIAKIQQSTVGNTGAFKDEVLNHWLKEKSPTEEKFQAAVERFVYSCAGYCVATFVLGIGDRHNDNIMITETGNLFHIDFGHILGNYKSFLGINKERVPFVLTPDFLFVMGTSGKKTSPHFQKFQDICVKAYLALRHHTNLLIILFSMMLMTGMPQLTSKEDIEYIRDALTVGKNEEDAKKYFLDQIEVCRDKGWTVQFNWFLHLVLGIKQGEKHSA
Chain of PIK3CA (human) (P42336 whole entry, looked up): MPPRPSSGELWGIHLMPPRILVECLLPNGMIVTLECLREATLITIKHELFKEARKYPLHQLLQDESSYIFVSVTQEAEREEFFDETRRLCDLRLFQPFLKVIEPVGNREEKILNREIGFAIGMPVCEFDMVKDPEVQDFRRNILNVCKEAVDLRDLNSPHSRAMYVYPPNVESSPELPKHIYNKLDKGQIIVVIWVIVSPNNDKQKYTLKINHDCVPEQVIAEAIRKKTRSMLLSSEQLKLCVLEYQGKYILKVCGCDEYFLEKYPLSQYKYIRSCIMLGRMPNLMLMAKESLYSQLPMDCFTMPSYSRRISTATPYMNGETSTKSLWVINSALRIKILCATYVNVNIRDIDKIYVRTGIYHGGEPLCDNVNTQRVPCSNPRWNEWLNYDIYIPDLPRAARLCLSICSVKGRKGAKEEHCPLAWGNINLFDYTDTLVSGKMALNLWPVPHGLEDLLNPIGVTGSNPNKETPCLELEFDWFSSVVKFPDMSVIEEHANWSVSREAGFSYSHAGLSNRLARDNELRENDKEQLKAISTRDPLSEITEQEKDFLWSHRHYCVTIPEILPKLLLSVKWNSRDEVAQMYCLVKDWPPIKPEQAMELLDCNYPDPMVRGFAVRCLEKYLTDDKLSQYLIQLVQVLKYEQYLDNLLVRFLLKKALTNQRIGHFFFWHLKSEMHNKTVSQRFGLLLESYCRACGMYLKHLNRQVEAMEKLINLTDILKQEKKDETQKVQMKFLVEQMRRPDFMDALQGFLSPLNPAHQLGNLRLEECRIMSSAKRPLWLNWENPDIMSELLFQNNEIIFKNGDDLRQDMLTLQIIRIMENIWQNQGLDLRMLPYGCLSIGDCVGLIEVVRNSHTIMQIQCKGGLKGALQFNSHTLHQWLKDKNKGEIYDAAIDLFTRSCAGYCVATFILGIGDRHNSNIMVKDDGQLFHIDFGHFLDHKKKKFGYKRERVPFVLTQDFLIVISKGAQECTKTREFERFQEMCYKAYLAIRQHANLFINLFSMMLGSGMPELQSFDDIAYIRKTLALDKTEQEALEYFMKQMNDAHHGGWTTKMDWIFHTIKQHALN
Chain of PIK3CD (Human) (O00329 whole entry, looked up): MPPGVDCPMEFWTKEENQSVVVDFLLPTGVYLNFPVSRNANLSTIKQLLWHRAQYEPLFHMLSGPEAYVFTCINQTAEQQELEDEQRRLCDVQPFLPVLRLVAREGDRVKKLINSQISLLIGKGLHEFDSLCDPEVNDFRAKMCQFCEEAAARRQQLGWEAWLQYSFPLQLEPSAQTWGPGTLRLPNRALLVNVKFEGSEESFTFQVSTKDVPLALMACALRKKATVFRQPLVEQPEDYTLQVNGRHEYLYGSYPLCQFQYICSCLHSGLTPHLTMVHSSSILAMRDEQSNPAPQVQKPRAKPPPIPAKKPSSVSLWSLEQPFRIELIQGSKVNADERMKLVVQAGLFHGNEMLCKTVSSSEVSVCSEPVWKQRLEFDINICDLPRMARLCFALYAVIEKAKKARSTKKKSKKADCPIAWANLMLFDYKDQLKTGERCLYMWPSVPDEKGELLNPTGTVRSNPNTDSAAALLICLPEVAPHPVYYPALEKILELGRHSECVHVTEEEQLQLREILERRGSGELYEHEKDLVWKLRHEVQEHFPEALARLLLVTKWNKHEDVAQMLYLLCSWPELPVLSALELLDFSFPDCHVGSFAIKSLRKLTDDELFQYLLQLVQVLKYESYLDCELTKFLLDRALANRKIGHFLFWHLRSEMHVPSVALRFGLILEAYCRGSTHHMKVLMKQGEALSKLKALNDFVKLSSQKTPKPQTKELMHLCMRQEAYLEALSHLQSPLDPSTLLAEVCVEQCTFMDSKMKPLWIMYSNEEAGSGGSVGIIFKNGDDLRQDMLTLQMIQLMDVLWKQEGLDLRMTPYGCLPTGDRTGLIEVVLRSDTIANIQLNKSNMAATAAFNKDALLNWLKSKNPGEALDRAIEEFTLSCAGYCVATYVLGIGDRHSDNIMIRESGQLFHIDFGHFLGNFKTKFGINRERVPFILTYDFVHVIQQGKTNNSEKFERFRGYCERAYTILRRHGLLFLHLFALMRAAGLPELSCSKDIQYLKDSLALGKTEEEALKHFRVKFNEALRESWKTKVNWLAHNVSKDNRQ
Chain of PIK3CB (Human) (P42338 whole entry, looked up): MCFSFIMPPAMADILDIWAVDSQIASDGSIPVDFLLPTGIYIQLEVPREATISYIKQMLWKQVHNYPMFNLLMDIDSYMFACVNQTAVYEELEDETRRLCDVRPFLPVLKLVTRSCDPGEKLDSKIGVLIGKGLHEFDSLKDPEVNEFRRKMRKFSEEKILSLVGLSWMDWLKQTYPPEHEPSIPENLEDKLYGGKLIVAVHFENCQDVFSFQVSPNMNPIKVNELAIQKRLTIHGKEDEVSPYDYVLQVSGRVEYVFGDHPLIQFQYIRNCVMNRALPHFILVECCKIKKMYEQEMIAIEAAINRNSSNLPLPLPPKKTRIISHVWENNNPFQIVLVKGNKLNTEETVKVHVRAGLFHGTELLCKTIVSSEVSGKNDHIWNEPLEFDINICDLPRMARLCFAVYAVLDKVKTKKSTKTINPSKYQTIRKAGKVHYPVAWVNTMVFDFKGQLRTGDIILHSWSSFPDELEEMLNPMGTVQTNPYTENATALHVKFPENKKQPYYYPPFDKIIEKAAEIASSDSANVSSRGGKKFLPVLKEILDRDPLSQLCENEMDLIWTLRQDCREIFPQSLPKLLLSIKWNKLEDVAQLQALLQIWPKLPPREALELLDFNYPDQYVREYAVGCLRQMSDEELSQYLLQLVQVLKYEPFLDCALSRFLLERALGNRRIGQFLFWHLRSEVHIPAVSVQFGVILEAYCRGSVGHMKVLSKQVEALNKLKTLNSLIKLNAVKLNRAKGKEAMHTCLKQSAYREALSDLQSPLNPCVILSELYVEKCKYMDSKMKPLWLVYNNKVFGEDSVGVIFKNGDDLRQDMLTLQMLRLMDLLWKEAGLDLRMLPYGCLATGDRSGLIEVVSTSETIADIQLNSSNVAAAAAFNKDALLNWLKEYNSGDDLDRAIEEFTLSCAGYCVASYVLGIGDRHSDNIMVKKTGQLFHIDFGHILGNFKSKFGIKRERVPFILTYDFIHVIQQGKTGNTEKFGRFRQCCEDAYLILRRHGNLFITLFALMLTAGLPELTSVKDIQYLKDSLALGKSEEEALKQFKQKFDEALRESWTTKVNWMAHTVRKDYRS

Structure (SMILES) | IC50 [1] [nM] | IC50 [2] [nM] | IC50 [3] [nM] | IC50 [4] [nM] | IC50 [5] [nM] | IC50 [6] [nM] | IC50 [7] [nM]
C[C@H](Nc1ncnc2scnc12)c1cc2cccc(-c3cn(C)cn3)c2c(=O)n1-c1ccccc1 | > 10000 | > 10000 | 100 to 1000 | > 10000 |  |  | 
CC(C)n1c([C@H](C)Nc2ncnc3scnc23)cc2cccc(-c3ccnnc3)c2c1=O | > 10000 | > 10000 | 100 to 1000 | > 10000 | < 100 |  | 
CNC(=O)c1cccc2cc([C@H](C)Nc3ncnc4scnc34)n(-c3ccccc3)c(=O)c12 | > 10000 | > 10000 | 100 to 1000 | > 10000 |  |  | 
Cc1nc2c(N[C@@H](C)c3cc4cccc(Cl)c4c(=O)n3-c3cccc(F)c3)ncnc2s1 | > 10000 | > 10000 |  | > 10000 |  |  | 
Cc1nc2c(N[C@@H](C)c3cc4cccc(Cl)c4c(=O)n3-c3ccccc3)ncnc2s1 | > 10000 | > 10000 | > 10000 | > 10000 |  |  | 
C[C@H](Nc1ncnc2scnc12)c1cc2cccc(Cl)c2c(=O)n1-c1cccc(F)c1 | 100 to 1000 | < 100 | < 100 | < 100 |  |  | 
C[C@H](Nc1ncnc2scnc12)c1cc2cccc(-c3ccccn3)c2c(=O)n1-c1ccccc1 | > 10000 | > 10000 | < 100 | 100 to 1000 |  |  | 
C[C@H](Nc1ncnc2scnc12)c1cc2cccc(Cl)c2c(=O)n1CCN1CCCC1 | > 10000 | 100 to 1000 | < 100 | > 10000 |  |  | 
C[C@H](Nc1ncnc2scnc12)c1cc2cccc(-c3cncc(N)c3)c2c(=O)n1-c1ccccc1 |  | > 10000 | < 100 | 100 to 1000 | < 100 |  | 
C[C@H](Nc1ncnc2scc(-c3ccccc3)c12)c1cc2cccc(Cl)c2c(=O)n1-c1ccccc1 | > 10000 | > 10000 | 100 to 1000 |  |  |  | 
C[C@H](Nc1ncnc2scnc12)c1cc2cccc(-c3cnn(C)c3)c2c(=O)n1C1CC1 | 100 to 1000 | 100 to 1000 | < 100 | < 100 |  |  | 
C[C@H](Nc1ncnc2scnc12)c1cc2cccc(Cl)c2c(=O)n1C1CC1 | 100 to 1000 | < 100 | < 100 | < 100 |  |  | 
C[C@H](Nc1ncnc2scnc12)c1cc2cccc(-c3cnc4ccccc4c3)c2c(=O)n1-c1ccccc1 | 100 to 1000 | 100 to 1000 | < 100 | < 100 |  |  | 
C[C@H](Nc1ncnc2scnc12)c1cc2cccc(C(=O)N(C)C)c2c(=O)n1-c1ccccc1 | > 10000 | > 10000 | 100 to 1000 | > 10000 |  |  | 
C[C@H](Nc1ncnc2scnc12)c1cc2cccc(Cl)c2c(=O)n1-c1ccccc1 | 100 to 1000 | < 100 | < 100 | < 100 |  |  | 
COc1cncc(-c2cccc3cc([C@H](C)Nc4ncnc5scnc45)n(C4CC4)c(=O)c23)c1 | 100 to 1000 | 100 to 1000 | < 100 | 100 to 1000 |  |  | 
C[C@H](Nc1ncnc2scnc12)c1cc2cccc(-c3cnc4[nH]ccc4c3)c2c(=O)n1-c1ccccc1 | 100 to 1000 | 100 to 1000 | < 100 | < 100 |  |  | 
C[C@H](Nc1ncnc2scnc12)c1cc2cccc(-c3cnc4nccnc4c3)c2c(=O)n1-c1ccccc1 | > 10000 | > 10000 | < 100 | 100 to 1000 |  |  | 
Cc1ncc(-c2cccc3cc([C@H](C)Nc4ncnc5scnc45)n(-c4ccon4)c(=O)c23)cn1 | > 10000 | > 10000 | 100 to 1000 | > 10000 | < 100 |  | 

Continued, values first:

IC50 [1] [nM] | IC50 [2] [nM] | IC50 [3] [nM] | IC50 [4] [nM] | IC50 [5] [nM] | IC50 [6] [nM] | IC50 [7] [nM] | Structure (SMILES)
> 10000 | 100 to 1000 | < 100 | 100 to 1000 | < 100 |  |  | C[C@H](Nc1ncnc2scnc12)c1cc2cccc(Cl)c2c(=O)n1-c1ccon1
 |  | < 100 | 100 to 1000 | < 100 | 100 to 1000 | 100 to 1000 | COc1ncc(-c2cccc3cc([C@H](C)Nc4ncnc5scnc45)n(-c4ccon4)c(=O)c23)cn1
100 to 1000 |  | < 100 | < 100 | < 100 | 100 to 1000 |  | C[C@H](Nc1ncnc2scnc12)c1cc2cccc(-c3cnn(C)c3)c2c(=O)n1-c1ccccc1
 |  | < 100 | 100 to 1000 | < 100 | 100 to 1000 | 100 to 1000 | CC(C)n1c([C@H](C)Nc2ncnc3scnc23)cc2cccc(-c3ccc(=O)n(C)c3)c2c1=O
 |  | < 100 | < 100 | < 100 |  |  | COc1ncc(-c2cccc3cc([C@H](C)Nc4ncnc5scnc45)n(-c4ccccc4)c(=O)c23)cn1
100 to 1000 | 100 to 1000 | < 100 | < 100 |  |  |  | C[C@H](Nc1ccnc2scnc12)c1cc2cccc(Cl)c2c(=O)n1-c1ccccc1
> 10000 | > 10000 | < 100 | 100 to 1000 |  |  |  | C[C@H](Nc1ncnc2scnc12)c1cc2cccc(-c3ccc(C(F)(F)F)nc3)c2c(=O)n1-c1ccccc1
100 to 1000 | 100 to 1000 | < 100 | < 100 |  |  |  | C[C@H](Nc1nc(N)nc2scnc12)c1cc2cccc(-c3cnn(C)c3)c2c(=O)n1-c1ccccc1
100 to 1000 | 100 to 1000 | < 100 | < 100 |  |  |  | C[C@H](Nc1ncnc2scnc12)c1cc2cccc(-c3ccc(N)nc3)c2c(=O)n1C1CC1
< 100 | 100 to 1000 | < 100 | < 100 |  |  |  | COc1cncc(-c2cccc3cc([C@H](C)Nc4ncnc5scnc45)n(-c4ccccc4)c(=O)c23)c1
